Data on three compounds can be found in patent US5693677A, “Ceramide 3 derivatives based on monounsaturated fatty acids” (Gist-brocades N.V., priority 1994, dated 1997).

Values after ≈ are worked out from the molar mass of the structure shown.

Data set [1] can be described thus: Solubility of ceramide 3 derivatives in emollients (visual inspection, maximum concentration before cloudiness). Type of data set: physicochemical. To be noted: for solubility: organic solvent or mixture. The protocol: The compound produced in Example 1, N-oleoyl phytosphingosine (also called Ceramide IIIB) was tested by solubilisation in isocetyl alcohol (Eutanol™ G16, Henkel), isostearic acid (Emersol, Henkel), triglycerides (Myritolo 318, J. Dekker), wallnut oil (J. Dekker) and avocado oil (J. Dekker).
Increasing amounts of the compound were added to the solvent and stirred under nitrogen for 30 minutes at 45° C. After cooling to room temperature (22° C.±2° C.) the solutions were kept in the dark. After 1, 24 and 48 hours the solutions were visually inspected. The maximum concentration was determined before the solution turned cloudy, indicating the presence of insoluble crystals.
The solubility of a saturated ceramide 3 derivative, N-stearoylphytosphingosine, was also determined.

Data set [2] is described as follows: Thermo-gravimetric analysis (TG/DTA) of ceramides, oxidation stability. It is filed as physicochemical. The settings on record: 5° C./min; for Stability in thermo-gravimetric analysis: 25° to 180° C., oxygen (100 ml/min), in words. The protocol: Thermo-gravimetry (TG) and Differential Thermo-gravimetric Analysis (DTA) were carried out using the SSC 5200 system of Seiko, provided with the TG/DTA furnaces. Standard procedures were used to obtain the desired data.
Atmosphere oxygen (100 ml/min)
Reference empty, open Pt pan
Sample size ± 5 mg powder
Sample container open Pt pan

Data set [3] concerns SDS-damaged skin. As to the kind of experiment: Effects of ceramide IIIB formulations on SDS-damaged skin, skin humidity (corneometry). To be noted: skin pretreated with a surfactant (SDS), topical. It is filed as in vivo, human (female volunteers). The protocol:
The corneometer CM 820 PC (Courage and Khazaka, Cologne, Germany) registers the electrical capacitance of the skin surface, which is a measure of the degree of moisture on the skin's surface. The capacitance is expressed digitally in arbitrary units (a.u.). Three measurements were performed on each test area and the mean was used to define hydration state of the stratum corneum.
(§1) after damaging the skin with SDS
(§2) 1 hour after last application on days 3, 7, 14
(§3) Five female volunteers at the age of 22-43 years with healthy skin were included in the test.
(§4) Measurements were carried out at a temperature of 22°±1° C. and a relative humidity of 60±10%. Subjects were accustomed to ambient conditions for 20 min prior to any measurement. The test was carried out on the volar forearms. The skin of the forearms was treated with a 5% aqueous solution of sodium lauryl sulphate (SDS) and an occlusive dressing applied. The dressing was removed 2 h later, and the regions gently washed with water and air-dried. After 30 min the measurements were done. Then the three test products were applied, one area remained untreated. The dose of application was about 2 mg/cm^2. In the following 14 days a home application in the morning and evening took place.
Measurements were evaluated during the treatment period on day 3, 7 and 14 one hour after the last daily application. […]

Data set [4] has as its system SDS-damaged skin. The data set is described as follows: Effects of ceramide IIIB formulations on SDS-damaged skin, trans-epidermal water loss (TEWL). Type of data set: in vivo, human (female volunteers). The settings on record: 0.2 and 0.5% Ceramide IIIB. As to the method: (§5) Measurements of trans-epidermal water loss (TEWL) were performed with the Tewameter (Courage & Khazaka, Cologne, Germany). The Tewameter is a device for measurement of water evaporation on skin surfaces based on the diffusion principle discovered by A. Fick in 1885.
as §1, §2, §3, §4
Measurements were evaluated during the treatment period on day 3, 7 and 14 one hour after the last daily application. Use of other cosmetic products was restricted on the test areas throughout the whole study.

For a further data set, the system named is skin (SDS-challenge). The data set is described as follows: Protective effects of ceramide IIIB formulations against SDS-challenge, TEWL. It is filed as in vivo, human (female volunteers). The settings on record: pretreatment, in words (TEWL and skin colour). The protocol:
as §5
before start of treatment;
two hours after last application on day 7;
2 hours after irritation with SDS (2 h under occlusion).
Two panels of each five female volunteers at the age of 19-55 years with healthy skin were included in the test.
Measurements were carried out at a temperature of 22°±1° C. and a relative humidity of 60±10%. Subjects were accustomed to ambient conditions for 20 min prior to any measurement. The test was carried out on the volar forearms. Initially untreated skin was measured in all four areas to find baseline values. Then the three test products were applied, one area remained untreated. The dose of application was about 2 mg/cm^2. In the following 7 days a home application in the morning and evening took place. Measurements were evaluated during the treatment period on day 7 two hours after the last daily application. […]
The results of TEWL and skin colour measurements are presented in respectively FIGS. 5 and 6. Values are expressed as (Valueday7 -Valueday0)/Valueday0 ×100%.

On to `CCCCCCCCCCCCCCCCCC(=O)N[C@@H](CO)[C@H](O)[C@H](O)CCCCCCCCCCCCCC` [Ceramide III, N-stearoylphytosphingosine, reference compound], for which the solubility (commonly how much of the substance goes into solution per volume) in data set [1] (avocado oil) worked out at 50 µg/mL (≈ 85.6 µM); in data set [1] (emersol (isostearic acid)), 600 µg/mL (≈ 1030 µM); in data set [1] (eutanol g16 (isocetyl alcohol)), 1600 µg/mL (≈ 2740 µM); in data set [1] (myritol 318 (triglycerides)), 50 µg/mL (≈ 85.6 µM); in data set [1] (wallnut oil), 50 µg/mL (≈ 85.6 µM). Besides, in data set [2], the “Stability in thermo-gravimetric analysis” value is “most stable compound as is illustrated by the absence of change of weight”.

For the compound `CCCCCCCC/C=C\CCCCCCCC(=O)N[C@@H](CO)[C@H](O)[C@H](O)CCCCCCCCCCCCCC` [Ceramide IIIB, N-oleoylphytosphingosine], in the data set on SDS-damaged skin [3], the “Recovery of diminished water-retaining properties of skin” value is reported as “high capacity for recovering diminished water-retaining properties of the skin”. Further, the solubility in data set [1] (avocado oil) was under 200 µg/mL; in data set [1] (emersol (isostearic acid)), 8000 µg/mL (≈ 13700 µM); in data set [1] (eutanol g16 (isocetyl alcohol)), 12000 µg/mL (≈ 20600 µM); in data set [1] (myritol 318 (triglycerides)) it was 800 µg/mL (≈ 1370 µM); in data set [1] (wallnut oil) it was 200 µg/mL (≈ 344 µM). Further, the “Solubility compared with saturated analogue” value in data set [1] (emollients, in words) is “solubilizes much better than its saturated analogue”. Besides, in the data set with SDS-damaged skin [4], the TEWL dose-response result was “a clear dose-response effect”. The “Stability in thermo-gravimetric analysis” value in data set [2] is recorded as “behaviour similar to ceramide 3, although showing a steadily increasing baseline, probably due to hydration. However, no sudden increase in weight followed by decomposition is observed”. The “Protection from SDS-induced skin damage” value with skin (SDS-challenge) is “protects the skin from SDS-induced damage”.

Consider `CCCCC/C=C\C/C=C\CCCCCCCC(=O)N[C@@H](CO)[C@H](O)[C@H](O)CCCCCCCCCCCCCC` [sample IIIA, N-linoleoylphytosphingosine], for which the “Temperature at which weight increase (oxidation) followed by decomposition starts” value in data set [2] (oxygen) is “ca. 80 °C”. The “Stability in thermo-gravimetric analysis” value in data set [2] is “increase in weight (oxidation) followed by decomposition”.
